In assay [1] the target is T1, CYP11B2 (Homo sapiens (Human), UniProt P19099). Briefly: G-402 cellular enzyme assay, human CYP11B2 (aldosterone release). Type of assay: cell-based. The settings on record: G-402 cells expressing human CYP11B2; 1 μM Deoxycorticosterone. The source says:
(§1) Herein we identified the use of the G-402 cell line as a host cell to ectopically express (transiently or stably) enzymes of the CYP11 family. Specifically we developed stable G-402 cells expressing ectopically human CYP11B1, human CYP11B2, human CYP11A1, cynmolgus CYP11B1 or cynomolgus CYP11B2 enzyme activity. Importantly the identified cell line G-402 expresses co-factors (adrenodoxin and adrenodoxin reductase) important for the activity of the CYP11 family and no relevant enzyme activity of the CYP11 family (in comparison to H295R cells) was detected in these cells. Therefore the G-402 cell line is uniquely suited as a host cell for the ectopic expression of enzymes from the CYP11 family.
(§2) G-402 cells can be obtained from ATCC (CRL-1440) and were originally derived from a renal leiomyoblastoma.
(§3) The expression plasmids contains the ORF for either human/cyno CYP11B1 or CYP11B2 under the control of a suitable promoter (CMV-promoter) and a suitable resistance marker (neomycin). Using standard techniques the expression plasmid is transfected into G-402 cells and these cells are then selected for expressing the given resistance markers. Individual cell-clones are then selected and assessed for displaying the desired enzymatic activity using 11-Deoxycorticosterone (Cyp11B2) or 11-Deoxycortisol (Cyp11B1) as a substrate.
(§4) G-402 cells expressing CYP11 constructs were established as described above and maintained in McCoy's 5a Medium Modified, ATCC Catalog No. 30-2007 containing 10% FCS and 400 μg/ml G418 (Geneticin) at 37° C. under an atmosphere of 5% CO2/95% air. Cellular enzyme assays were performed in DMEM/F12 medium containing 2.5% charcoal treated FCS and appropriate concentration of substrate (0.3-10 uM 11-Deoxycorticosterone, 11-Deoxycortisol or Corticosterone). For assaying enzymatic activity, cells were plated onto 96 well plates and incubated for 16 h. An aliquot of the supernatant is then transferred and analyzed for the concentration of the expected product (Aldosterone for CYP11B2; Cortisol for CYP11B1). The concentrations of these steroids can be determined using HTRF assays from CisBio analyzing either Aldosterone or Cortisol.
(§5) Inhibition of the release of produced steroids can be used as a measure of the respective enzyme inhibition by test compounds added during the cellular enzyme assay. The dose dependent inhibition of enzymatic activity by a compound is calculated by means of plotting added inhibitor concentrations (x-axes) vs. measured steroid/product level (y-axes). The inhibition is then calculated by fitting the following 4-parameter sigmoidal function (Morgan-Mercer-Flodin (MMF) model) to the raw data points using the least squares method:
(§6) [formula] wherein, A is the maximum y value, B is the EC50 factor determined using XLFit, C is the minimum y value and D is the slope value.
(§7) EC50 values for compounds claimed herein were tested with the G402-based assay system described. Cyp11B2 enzyme activity was tested in presence of 1 μM Deoxycorticosterone and variable amounts of inhibitors; Cyp11B1 enzyme activity was tested in presence of 1 μM Deoxycortisol and variable amounts of inhibitors.

The target of the next assay is human CYP11B1 (Homo sapiens (Human), UniProt P15538). The experiment in a line: G-402 cellular enzyme assay, human CYP11B1 (cortisol release). Type of assay: cell-based. The settings on record: G-402 cells expressing human CYP11B1; 1 μM Deoxycortisol.
Description: as §1, §2, §3, §4, §5, §6, §7

Assay [2] has as its target T1, CYP11B2. The settings on record: patients with primary aldosteronism, cited from earlier work.
Assay [3] deals with CYP11B2. The note with it: patients with primary aldosteronism; cited from earlier work.
The conditions of assay [4]: cited from earlier work; for plasma aldosterone: FAD286: 4 weeks of treatment, spironolactone: 4 and 8 weeks of treatment; for cardiac and aortic medial hypertrophy / renal effects (albuminuria, azotemia, renovascular hypertrophy, glomerular injury, PAI-1 and osteopontin mRNA, tubulointerstitial fibrosis): angiotensin II and high salt treatment, rat; for angiotensin II and salt-stimulated PAI-1 mRNA expression: aorta and heart.

For assay [5] the following is noted: rats with experimental heart failure; cited from earlier work.

Usually EC50 stands for the concentration at which the effect is half-maximal. A high value points to a less potent agent.

T1 sequence (P19099 25-503): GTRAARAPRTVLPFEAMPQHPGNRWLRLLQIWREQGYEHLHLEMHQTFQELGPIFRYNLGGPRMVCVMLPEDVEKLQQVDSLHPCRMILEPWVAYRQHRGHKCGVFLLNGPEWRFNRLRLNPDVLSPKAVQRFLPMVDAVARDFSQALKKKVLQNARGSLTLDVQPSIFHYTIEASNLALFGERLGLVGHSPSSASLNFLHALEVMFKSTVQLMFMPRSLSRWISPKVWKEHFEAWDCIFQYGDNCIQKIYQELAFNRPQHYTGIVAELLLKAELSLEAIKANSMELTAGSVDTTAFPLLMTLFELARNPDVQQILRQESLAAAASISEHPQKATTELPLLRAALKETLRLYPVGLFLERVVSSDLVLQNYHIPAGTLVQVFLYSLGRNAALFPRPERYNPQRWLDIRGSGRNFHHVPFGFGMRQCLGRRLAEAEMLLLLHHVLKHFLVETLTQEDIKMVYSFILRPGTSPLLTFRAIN
human CYP11B1, sequence (P15538 25-503): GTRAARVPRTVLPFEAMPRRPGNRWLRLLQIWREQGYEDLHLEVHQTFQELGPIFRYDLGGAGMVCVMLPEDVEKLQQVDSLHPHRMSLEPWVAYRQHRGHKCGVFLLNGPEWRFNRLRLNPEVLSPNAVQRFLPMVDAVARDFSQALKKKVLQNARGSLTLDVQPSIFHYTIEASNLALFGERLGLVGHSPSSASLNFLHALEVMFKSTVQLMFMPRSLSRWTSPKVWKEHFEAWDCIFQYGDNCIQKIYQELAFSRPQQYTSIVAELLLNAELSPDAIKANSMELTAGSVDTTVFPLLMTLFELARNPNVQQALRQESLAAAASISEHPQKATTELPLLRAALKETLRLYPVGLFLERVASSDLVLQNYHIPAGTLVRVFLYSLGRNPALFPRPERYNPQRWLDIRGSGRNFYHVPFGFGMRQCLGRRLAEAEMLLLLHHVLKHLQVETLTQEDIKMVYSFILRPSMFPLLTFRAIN

As for `CC(=O)N1CCC(Cc2c[nH]nc2-c2ccc3c(c2F)CCC(=O)N3C)CC1` [Example 21, 6-[4-[(1-Acetyl-4-piperidyl)methyl]-1H-pyrazol-3-yl]-5-fluoro-1-methyl-3,4-dihydroquinolin-2-one], the EC50 on CYP11B2 [1] came to 0.012 nM; at human CYP11B1 it was 0.447 nM.

As to `CN1C(=O)CCc2c1ccc(-c1[nH]ncc1CC1CCN(C(=O)c3ncccc3Cl)CC1)c2Cl` [Example 28, 5-Chloro-6-[4-[[1-(3-chloropyridine-2-carbonyl)-4-piperidyl]methyl]-1H-pyrazol-3-yl]-1-methyl-3,4-dihydroquinolin-2-one], the results for the EC50 on CYP11B2 [1] and on human CYP11B1 were 0.0276 nM and 2.45 nM, respectively.

Turning to `CN1C(=O)CCc2cc(-c3n[nH]cc3CC3CCN(C(=O)c4cnn(C)c4)CC3)ccc21` [Example 17, 1-Methyl-6-[4-[[1-(1-methylpyrazole-4-carbonyl)-4-piperidyl]methyl]-1H-pyrazol-3-yl]-3,4-dihydroquinolin-2-one], the EC50 at human CYP11B1 came to 1.2 nM.

For `CCS(=O)(=O)N1CCC(Cc2c[nH]nc2-c2ccc3c(c2)CCC(=O)N3C)CC1` [Example 18, 6-[4-[(1-Ethylsulfonyl-4-piperidyl)methyl]-1H-pyrazol-3-yl]-1-methyl-3,4-dihydroquinolin-2-one], the EC50 came out at 0.0052 nM at CYP11B2 [1] and 0.216 nM on human CYP11B1.

As for `CN1C(=O)CCc2cc(-c3[nH]ncc3CC3CCN(C(=O)c4ncccc4Cl)CC3)ccc21` [Example 34, 6-[4-[[1-(3-Chloropyridine-2-carbonyl)-4-piperidyl]methyl]-1H-pyrazol-3-yl]-1-methyl-3,4-dihydroquinolin-2-one], the figures for the EC50 at CYP11B2 [1] and at human CYP11B1 were 0.0145 nM and 0.547 nM, respectively.

`CN1C(=O)CCc2c1ccc(-c1n[nH]cc1CC1CCN(C(=O)c3cnn(C)c3)CC1)c2F` [Example 20, 5-Fluoro-1-methyl-6-[4-[[1-(1-methylpyrazole-4-carbonyl)piperidin-4-yl]methyl]-1H-pyrazol-3-yl]-3,4-dihydroquinolin-2-one] returned an EC50 on human CYP11B1 of 0.723 nM.

Take `N#Cc1ccc([C@H]2CCc3cncn32)c(F)c1` [LCI699]: the circulating aldosterone levels entry on CYP11B2 [2] (oral) is “significantly lower”. Also, on CYP11B2 [2], the blood pressure result is recorded as “mildly decreased” and the hypokalemia result is given as “corrected”. Also, the “selectivity (effects on the glucocorticoid axis, cortisol synthesis)” value with CYP11B2 [3] is “poor selectivity”.

In the case of `CN1C(=O)CCc2c1ccc(-c1n[nH]cc1CC1CC3(C1)CN(C(=O)c1cnn(C)c1)C3)c2Cl` [Example 41, 5-Chloro-1-methyl-6-[4-[[2-(1-methylpyrazole-4-carbonyl)-2-azaspiro[3.3]heptan-6-yl]methyl]-1H-pyrazol-3-yl]-3,4-dihydroquinolin-2-one], the EC50 on CYP11B2 [1] is 0.0377 nM; at human CYP11B1, 7.29 nM.

For the compound `CN1C(=O)CCc2cc(-c3[nH]ncc3CC3CCN(C(=O)c4cncn4C)CC3)ccc21` [Example 31, 1-Methyl-6-[4-[[1-(3-methylimidazole-4-carbonyl)-4-piperidyl]methyl]-1H-pyrazol-3-yl]-3,4-dihydroquinolin-2-one], the EC50 turned out to be 0.007 nM on CYP11B2 [1] and 1.12 nM at human CYP11B1.

With `CN1C(=O)CCc2cc(-c3[nH]ncc3CC3CCN(C(=O)c4nccn4C)CC3)ccc21` [Example 32, 1-Methyl-6-[4-[[1-(1-methylimidazole-2-carbonyl)-4-piperidyl]methyl]-1H-pyrazol-3-yl]-3,4-dihydroquinolin-2-one], the EC50 on CYP11B2 [1] is 0.0294 nM; on human CYP11B1, 0.351 nM.

On to `CCS(=O)(=O)N1CCC(Cc2cn[nH]c2-c2ccc3c(c2F)CCC(=O)N3C)CC1` [Example 22, 6-[4-[(1-Ethylsulfonylpiperidin-4-yl)methyl]-1H-pyrazol-3-yl]-5-fluoro-1-methyl-3,4-dihydroquinolin-2-one], for which it took 0.133 nM to reach a half-maximal effect at human CYP11B1 (EC50).

Consider `CC(=O)N1CC2(CC(Cc3c[nH]nc3-c3ccc4c(c3Cl)CCC(=O)N4C)C2)C1` [Example 40, 6-[4-[(2-Acetyl-2-azaspiro[3.3]heptan-6-yl)methyl]-1H-pyrazol-3-yl]-5-chloro-1-methyl-3,4-dihydroquinolin-2-one], for which the EC50 at CYP11B2 [1] was 0.0495 nM; on human CYP11B1, 2.47 nM.

For the compound `CN1C(=O)CCc2c1ccc(-c1[nH]ncc1CC1CCN(C(=O)c3ccnn3C)CC1)c2Cl` [Example 29, 5-Chloro-1-methyl-6-[4-[[1-(2-methylpyrazole-3-carbonyl)-4-piperidyl]methyl]-1H-pyrazol-3-yl]-3,4-dihydroquinolin-2-one], the EC50 on CYP11B2 [1] was 0.0164 nM; at human CYP11B1, 3.31 nM.

`CN1C(=O)CCc2c1ccc(-c1[nH]ncc1CC1CCN(C(=O)c3ccncc3Cl)CC1)c2Cl` [Example 30, 5-Chloro-6-[4-[[1-(3-chloropyridine-4-carbonyl)-4-piperidyl]methyl]-1H-pyrazol-3-yl]-1-methyl-3,4-dihydroquinolin-2-one]: the figures for the EC50 on CYP11B2 [1] and on human CYP11B1 were 0.0192 nM and 2.47 nM, respectively.

With `CC(=O)N1CCC(Cc2c[nH]nc2-c2cc3c(cc2F)N(C)C(=O)CC3)CC1` [Example 19, 6-[4-[(1-Acetylpiperidin-4-yl)methyl]-1H-pyrazol-3-yl]-7-fluoro-1-methyl-3,4-dihydroquinolin-2-one], the EC50 on CYP11B2 [1] worked out at 0.0171 nM; on human CYP11B1 it was 0.416 nM.

In the case of `CCS(=O)(=O)N1CC2(CC(Cc3c[nH]nc3-c3ccc4c(c3Cl)CCC(=O)N4C)C2)C1` [Example 39, 5-Chloro-6-[4-[(2-ethylsulfonyl-2-azaspiro[3.3]heptan-6-yl)methyl]-1H-pyrazol-3-yl]-1-methyl-3,4-dihydroquinolin-2-one], the values for the EC50 on CYP11B2 [1] and at human CYP11B1 were 0.0059 nM and 0.215 nM, respectively.

Turning to `CC(=O)N1CCC(Cc2c[nH]nc2-c2ccc3c(c2)CCC(=O)N3C)CC1` [Example 16, 6-[4-[(1-Acetyl-4-piperidyl)methyl]-1H-pyrazol-3-yl]-1-methyl-3,4-dihydroquinolin-2-one], the EC50 came out at 0.0283 nM at CYP11B2 [1] and 0.266 nM at human CYP11B1.

Regarding `CC(=O)S[C@@H]1CC2=CC(=O)CC[C@]2(C)[C@H]2CC[C@@]3(C)[C@@H](CC[C@@]34CCC(=O)O4)[C@H]12` [spironolactone], in assay [4], the plasma aldosterone entry is given as “increased”; the “cardiac and aortic medial hypertrophy” value was “attenuated”; the “renal effects (albuminuria, azotemia, renovascular hypertrophy, glomerular injury, PAI-1 and osteopontin mRNA, tubulointerstitial fibrosis)” value is “prevented these renal effects”; the “angiotensin II and salt-stimulated PAI-1 mRNA expression” value is “enhanced”.

For the compound `N#Cc1ccc(C2CCCc3cncn32)cc1` (stereo not shown) [FAD286], in assay [4], the plasma aldosterone entry is listed as “reduced”; the “cardiac and aortic medial hypertrophy” value is recorded as “attenuated”; the “renal effects (albuminuria, azotemia, renovascular hypertrophy, glomerular injury, PAI-1 and osteopontin mRNA, tubulointerstitial fibrosis)” value was “prevented these renal effects”; the “angiotensin II and salt-stimulated PAI-1 mRNA expression” value is “not”. In assay [5], the “blood pressure and cardiovascular function and structure” value is “improved”; the “kidney function and morphology” value is reported as “improve”.

The values are drawn from patent US9796702B2, “Dihydroquinoline pyrazolyl compounds” (Hoffmann-La Roche Inc., priority 2015, dated 2017).
